Test results: ChEMBL document CHEMBL3044899, “Effect of chloro and fluoro groups on the antimicrobial activity of 2,5-disubstituted 4-thiazolidinones: a comparative study” (2012)
Calls of active or inactive are those of the source. The rule behind the calls is not given here.

Tests used:
Escherichia coli [1] = assay: Antibacterial activity against Escherichia coli MTCC 739 by cup-plate method; assay type: functional, organism-based
Pseudomonas aeruginosa [2] = assay: Antibacterial activity against Pseudomonas aeruginosa MTCC 2453 at 200 ug/ml by cup-plate method; assay type: functional; settings: read-out: DIZ
Pseudomonas aeruginosa [3] = assay: Antibacterial activity against Pseudomonas aeruginosa MTCC 2453 by cup-plate method; assay type: functional, organism-based
Staphylococcus aureus [4] = assay: Antibacterial activity against Staphylococcus aureus MTCC 96 at 300 ug/ml by cup-plate method; assay type: functional; settings: read-out: DIZ
Bacillus subtilis [5] = assay: Antibacterial activity against Bacillus subtilis MTCC 121 at 300 ug/ml by cup plate method; assay type: functional; settings: read-out: DIZ
Pseudomonas aeruginosa [6] = assay: Antibacterial activity against Pseudomonas aeruginosa MTCC 2453 at 300 ug/ml by cup-plate method; assay type: functional; settings: read-out: DIZ
Escherichia coli [7] = assay: Antibacterial activity against Escherichia coli MTCC 739 at 100 ug/ml by cup-plate method; assay type: functional; settings: read-out: DIZ
Pseudomonas aeruginosa [8] = assay: Antibacterial activity against Pseudomonas aeruginosa MTCC 2453 at 50 ug/ml by cup-plate method; assay type: functional; settings: read-out: DIZ
Escherichia coli [9] = assay: Antibacterial activity against Escherichia coli MTCC 739 at 50 ug/ml by cup-plate method; assay type: functional; settings: read-out: DIZ
Bacillus subtilis [10] = assay: Antibacterial activity against Bacillus subtilis MTCC 121 by cup plate method; assay type: functional, organism-based
Bacillus subtilis [11] = assay: Antibacterial activity against Bacillus subtilis MTCC 121 at 200 ug/ml by cup plate method; assay type: functional; settings: read-out: DIZ
Staphylococcus aureus [12] = assay: Antibacterial activity against Staphylococcus aureus MTCC 96 at 50 ug/ml by cup-plate method; assay type: functional; settings: read-out: DIZ
Bacillus subtilis [13] = assay: Antibacterial activity against Bacillus subtilis MTCC 121 at 50 ug/ml by cup plate method; assay type: functional; settings: read-out: DIZ
Candida albicans = assay: Antifungal activity against Candida albicans MTCC 227 at 50 to 300 ug/ml by cup-plate method; assay type: functional, organism-based
Bacillus subtilis [14] = assay: Antibacterial activity against Bacillus subtilis MTCC 121 at 100 ug/ml by cup plate method; assay type: functional; settings: read-out: DIZ
Escherichia coli [15] = assay: Antibacterial activity against Escherichia coli MTCC 739 at 300 ug/ml by cup-plate method; assay type: functional; settings: read-out: DIZ
Escherichia coli [16] = assay: Antibacterial activity against Escherichia coli MTCC 739 at 200 ug/ml by cup-plate method; assay type: functional; settings: read-out: DIZ
Staphylococcus aureus [17] = assay: Antibacterial activity against Staphylococcus aureus MTCC 96 by cup-plate method; assay type: functional, organism-based
Staphylococcus aureus [18] = assay: Antibacterial activity against Staphylococcus aureus MTCC 96 at 100 ug/ml by cup-plate method; assay type: functional; settings: read-out: DIZ
Staphylococcus aureus [19] = assay: Antibacterial activity against Staphylococcus aureus MTCC 96 at 200 ug/ml by cup-plate method; assay type: functional; settings: read-out: DIZ
Pseudomonas aeruginosa [20] = assay: Antibacterial activity against Pseudomonas aeruginosa MTCC 2453 at 100 ug/ml by cup-plate method; assay type: functional; settings: read-out: DIZ

## O=C1N/C(=N\c2ccc(F)c(Cl)c2)S/C1=C\c1ccc(O)cc1
Escherichia coli [1]
  Activity: Dose-dependent effect
Pseudomonas aeruginosa [2]
  zone of inhibition at 200 µg/mL: 10 mm
Pseudomonas aeruginosa [3]
  Activity: Dose-dependent effect
Staphylococcus aureus [4]
  zone of inhibition at 300 µg/mL: 11 mm
Bacillus subtilis [5]
  zone of inhibition at 300 µg/mL: 11 mm
Pseudomonas aeruginosa [6]
  zone of inhibition at 300 µg/mL: 10 mm
Escherichia coli [7]
  zone of inhibition at 100 µg/mL: 9 mm
Pseudomonas aeruginosa [8]
  zone of inhibition at 50 µg/mL: 8 mm
Escherichia coli [9]
  zone of inhibition at 50 µg/mL: 8 mm
Bacillus subtilis [10]
  Activity: Dose-dependent effect
Bacillus subtilis [11]
  zone of inhibition at 200 µg/mL: 10 mm
Staphylococcus aureus [12]
  zone of inhibition at 50 µg/mL: 8 mm
Bacillus subtilis [13]
  zone of inhibition at 50 µg/mL: 9 mm
Candida albicans
  Activity: inactive
Bacillus subtilis [14]
  zone of inhibition at 100 µg/mL: 10 mm
Escherichia coli [15]
  zone of inhibition at 300 µg/mL: 10 mm
Escherichia coli [16]
  zone of inhibition at 200 µg/mL: 10 mm
Staphylococcus aureus [17]
  Activity: Dose-dependent effect
Staphylococcus aureus [18]
  zone of inhibition at 100 µg/mL: 10 mm
Staphylococcus aureus [19]
  zone of inhibition at 200 µg/mL: 10 mm
Pseudomonas aeruginosa [20]
  zone of inhibition at 100 µg/mL: 9 mm

## O=C1N/C(=N\c2cccc(Cl)c2)S/C1=C\c1ccccc1[N+](=O)[O-]
Escherichia coli [1]
  Activity: Dose-dependent effect
Pseudomonas aeruginosa [2]
  zone of inhibition at 200 µg/mL: 9 mm
Pseudomonas aeruginosa [3]
  Activity: Dose-dependent effect
Staphylococcus aureus [4]
  zone of inhibition at 300 µg/mL: 10 mm
Bacillus subtilis [5]
  zone of inhibition at 300 µg/mL: 10 mm
Pseudomonas aeruginosa [6]
  zone of inhibition at 300 µg/mL: 9 mm
Escherichia coli [7]
  zone of inhibition at 100 µg/mL: 8 mm
Pseudomonas aeruginosa [8]
  zone of inhibition at 50 µg/mL: 7 mm
Escherichia coli [9]
  zone of inhibition at 50 µg/mL: 6 mm
Bacillus subtilis [10]
  Activity: Dose-dependent effect
Bacillus subtilis [11]
  zone of inhibition at 200 µg/mL: 9 mm
Staphylococcus aureus [12]
  zone of inhibition at 50 µg/mL: 8 mm
Bacillus subtilis [13]
  zone of inhibition at 50 µg/mL: 9 mm
Candida albicans
  Activity: inactive
Bacillus subtilis [14]
  zone of inhibition at 100 µg/mL: 9 mm
Escherichia coli [15]
  zone of inhibition at 300 µg/mL: 9 mm
Escherichia coli [16]
  zone of inhibition at 200 µg/mL: 9 mm
Staphylococcus aureus [17]
  Activity: Dose-dependent effect
Staphylococcus aureus [18]
  zone of inhibition at 100 µg/mL: 9 mm
Staphylococcus aureus [19]
  zone of inhibition at 200 µg/mL: 10 mm
Pseudomonas aeruginosa [20]
  zone of inhibition at 100 µg/mL: 8 mm

## O=C1N/C(=N\c2cccc(Cl)c2)S/C1=C\c1ccccc1Cl
Escherichia coli [1]
  Activity: Dose-dependent effect
Pseudomonas aeruginosa [2]
  zone of inhibition at 200 µg/mL: 7 mm
Pseudomonas aeruginosa [3]
  Activity: Dose-dependent effect
Staphylococcus aureus [4]
  zone of inhibition at 300 µg/mL: 9 mm
Bacillus subtilis [5]
  zone of inhibition at 300 µg/mL: 9 mm
Pseudomonas aeruginosa [6]
  zone of inhibition at 300 µg/mL: 8 mm
Escherichia coli [7]
  zone of inhibition at 100 µg/mL: 7 mm
Pseudomonas aeruginosa [8]
  zone of inhibition at 50 µg/mL: 6 mm
Escherichia coli [9]
  zone of inhibition at 50 µg/mL: 7 mm
Bacillus subtilis [10]
  Activity: Dose-dependent effect
Bacillus subtilis [11]
  zone of inhibition at 200 µg/mL: 8 mm
Staphylococcus aureus [12]
  zone of inhibition at 50 µg/mL: 7 mm
Bacillus subtilis [13]
  zone of inhibition at 50 µg/mL: 7 mm
Candida albicans
  Activity: inactive
Bacillus subtilis [14]
  zone of inhibition at 100 µg/mL: 8 mm
Escherichia coli [15]
  zone of inhibition at 300 µg/mL: 8 mm
Escherichia coli [16]
  zone of inhibition at 200 µg/mL: 8 mm
Staphylococcus aureus [17]
  Activity: Dose-dependent effect
Staphylococcus aureus [18]
  zone of inhibition at 100 µg/mL: 8 mm
Staphylococcus aureus [19]
  zone of inhibition at 200 µg/mL: 8 mm
Pseudomonas aeruginosa [20]
  zone of inhibition at 100 µg/mL: 7 mm

## O=C1N/C(=N\c2ccc(Cl)cc2)S/C1=C\c1ccc(O)cc1
Escherichia coli [1]
  Activity: Dose-dependent effect
Pseudomonas aeruginosa [2]
  zone of inhibition at 200 µg/mL: 8 mm
Pseudomonas aeruginosa [3]
  Activity: Dose-dependent effect
Staphylococcus aureus [4]
  zone of inhibition at 300 µg/mL: 8 mm
Bacillus subtilis [5]
  zone of inhibition at 300 µg/mL: 8 mm
Pseudomonas aeruginosa [6]
  zone of inhibition at 300 µg/mL: 9 mm
Escherichia coli [7]
  zone of inhibition at 100 µg/mL: 7 mm
Pseudomonas aeruginosa [8]
  zone of inhibition at 50 µg/mL: 7 mm
Escherichia coli [9]
  zone of inhibition at 50 µg/mL: 7 mm
Bacillus subtilis [10]
  Activity: Dose-dependent effect
Bacillus subtilis [11]
  zone of inhibition at 200 µg/mL: 7 mm
Staphylococcus aureus [12]
  zone of inhibition at 50 µg/mL: 6 mm
Bacillus subtilis [13]
  zone of inhibition at 50 µg/mL: 6 mm
Candida albicans
  Activity: inactive
Bacillus subtilis [14]
  zone of inhibition at 100 µg/mL: 7 mm
Escherichia coli [15]
  zone of inhibition at 300 µg/mL: 8 mm
Escherichia coli [16]
  zone of inhibition at 200 µg/mL: 8 mm
Staphylococcus aureus [17]
  Activity: Dose-dependent effect
Staphylococcus aureus [18]
  zone of inhibition at 100 µg/mL: 7 mm
Staphylococcus aureus [19]
  zone of inhibition at 200 µg/mL: 7 mm
Pseudomonas aeruginosa [20]
  zone of inhibition at 100 µg/mL: 8 mm
